Test results published in publication PMC9669179 (Epilepsia, 2022).
Like-named read-outs stand apart in the source and are kept apart here.

Experiments:
[1] = Brain pharmacokinetics in mice; details: mouse
[2] = Brain pharmacokinetics in rats; details: rats, after CBZ i.p.
[3] = Plasma pharmacokinetics in mice
[4] = Plasma pharmacokinetics in rats; details: rats
adult male CF-1 mice [5] = assay: 6 Hz 44 mA seizure test in mice; assay type: in vivo, mouse
[6] = tested on: male adult Sprague-Dawley rats; assay: 6 Hz 80 V seizure test in rats; assay type: in vivo, rat; details: for Seizure protection (in words): rats, any time-point
[7] = CF-1, mouse, in vivo
[8] = CF-1, mouse, in vivo; remark: listed apart in the source
[9] = Sprague Dawley, rat, in vivo
[10] = Sprague Dawley, rat, in vivo; remark: listed apart in the source
in vivo [11] = details: CF-1, mouse, ip; for half-life: Plasma t1/2
in vivo [12] = details: Sprague Dawley, rat, ip
in vivo [13] = details: Sprague Dawley, rat, ip, Brain t1/2
mice = details: mouse, cited from earlier work
rats = details: rat, minimum motor impairment test, i.p.; cited from earlier work
[14] = tested on: adult Sprague-Dawley rats; assay: Maximal electroshock; assay type: in vivo, rat; details: MES; for Efficacy in rats (number seizure protected /number tested): low dose i.p. (CLB 17, CBZ 3, VPA 165 mg/kg); for Seizure protection (in words): rats
adult male CF-1 mice [15] = details: mouse, 6 Hz 44 mA, i.p.; cited from earlier work
[16] = tested on: adult Sprague-Dawley rats; details: rat, MES, i.p.; cited from earlier work
in vivo [17] = details: CF-1, mouse, ip
[18] = metabolite after high parent dose i.p.: CLB 17, CBZ 40 mg/kg
[19] = metabolite after low parent dose i.p.: CLB 7, CBZ 7 mg/kg
[20] = mouse, metabolite after high parent dose i.p.: CLB 17, CBZ 40 mg/kg
[21] = mouse, metabolite after low parent dose i.p.: CLB 7, CBZ 7 mg/kg
[22] = high dose i.p. (CLB 17, VPA 570, LEV 500 mg/kg), time test 0.25 h
[23] = high dose i.p. (CLB 17, VPA 570, LEV 500 mg/kg), time test 0.5 h
[24] = high dose i.p. (CLB 17, VPA 570, LEV 500 mg/kg), time test 1 h
[25] = high dose i.p. (CLB 17, VPA 570, LEV 500 mg/kg), time test 2 h
[26] = high dose i.p. (CLB 17, VPA 570, LEV 500 mg/kg), time test 4 h
[27] = high dose i.p. (CLB 17, VPA 570, LEV 500 mg/kg), time test 8 h
[28] = low dose i.p. (CLB 7, VPA 260, LEV 20 mg/kg), time test 0.25 h
[29] = low dose i.p. (CLB 7, VPA 260, LEV 20 mg/kg), time test 0.5 h
[30] = low dose i.p. (CLB 7, VPA 260, LEV 20 mg/kg), time test 1 h
[31] = low dose i.p. (CLB 7, VPA 260, LEV 20 mg/kg), time test 2 h
[32] = low dose i.p. (CLB 7, VPA 260, LEV 20 mg/kg), time test 4 h
[33] = low dose i.p. (CLB 7, VPA 260, LEV 20 mg/kg), time test 8 h
[34] = mice, low dose i.p. (VPA 260, LEV 20 mg/kg)

## NC(=O)N1c2ccccc2C2OC2c2ccccc21 (stereo not shown) [CBZE, carbamazepine-10,11-epoxide]
[1]; [18]
  Brain/Plasma AUC ratio of active metabolite: 1.00
[1]; [19]
  Brain/Plasma AUC ratio of active metabolite: 1.20
[2]
  Brain half-life of metabolite: approximately 4 hrs
[3]; mice, high dose CBZ 40 mg/kg i.p., fold longer than CBZ
  Plasma half-life of CBZE relative to CBZ: ~ 3 fold
[3]; [20]
  Plasma t1/2 of metabolite: 239 min
[3]; [21]
  Plasma t1/2 of metabolite: 72 min
[4]; after CBZ i.p.
  CBZE plasma exposures as % of CBZ: approximately 70%
  Plasma half-life of metabolite: approximately 4 hrs

## CC[C@@H](C(N)=O)N1CCCC1=O [LEV, levetiracetam]
Adult male CF-1 mice [5]; [22]
  Efficacy in mice (number seizure protected/number tested): 1/4
Adult male CF-1 mice [5]; [23]
  Efficacy in mice (number seizure protected/number tested): 1/4
Adult male CF-1 mice [5]; [24]
  Efficacy in mice (number seizure protected/number tested): 1/4
Adult male CF-1 mice [5]; [25]
  Efficacy in mice (number seizure protected/number tested): 1/4
Adult male CF-1 mice [5]; [26]
  Efficacy in mice (number seizure protected/number tested): 1/4
Adult male CF-1 mice [5]; [27]
  Efficacy in mice (number seizure protected/number tested): 0/4
Adult male CF-1 mice [5]; [28]
  Efficacy in mice (number seizure protected/number tested): 0/4
Adult male CF-1 mice [5]; [29]
  Efficacy in mice (number seizure protected/number tested): 0/4
Adult male CF-1 mice [5]; [30]
  Efficacy in mice (number seizure protected/number tested): 0/4
Adult male CF-1 mice [5]; [31]
  Efficacy in mice (number seizure protected/number tested): 0/4
Adult male CF-1 mice [5]; [32]
  Efficacy in mice (number seizure protected/number tested): 0/4
Adult male CF-1 mice [5]; [33]
  Efficacy in mice (number seizure protected/number tested): 0/4
Adult male CF-1 mice [5]; mice, high-dose LEV (500 mg/kg i.p.), within 4 hrs post-dose
  Protection against seizures: 25%
Adult male CF-1 mice [5]; [34]
  Seizure protection (in words): did not protect
[6]; high dose i.p. (LEV 800 mg/kg), time test 0.25 h
  Efficacy in rats (number seizure protected /number tested): 0/4
[6]; high dose i.p. (LEV 800 mg/kg), time test 0.5 h
  Efficacy in rats (number seizure protected /number tested): 0/4
[6]; high dose i.p. (LEV 800 mg/kg), time test 1 h
  Efficacy in rats (number seizure protected /number tested): 0/4
[6]; high dose i.p. (LEV 800 mg/kg), time test 2 h
  Efficacy in rats (number seizure protected /number tested): 0/4
[6]; high dose i.p. (LEV 800 mg/kg), time test 4 h
  Efficacy in rats (number seizure protected /number tested): 0/4
[6]; high dose i.p. (LEV 800 mg/kg), time test 8 h
  Efficacy in rats (number seizure protected /number tested): 0/4
[6]; low dose i.p. (LEV 14 mg/kg), time test 0.25 h
  Efficacy in rats (number seizure protected /number tested): 0/4
[6]; low dose i.p. (LEV 14 mg/kg), time test 0.5 h
  Efficacy in rats (number seizure protected /number tested): 0/4
[6]; low dose i.p. (LEV 14 mg/kg), time test 1 h
  Efficacy in rats (number seizure protected /number tested): 0/4
[6]; low dose i.p. (LEV 14 mg/kg), time test 2 h
  Efficacy in rats (number seizure protected /number tested): 0/4
[6]; low dose i.p. (LEV 14 mg/kg), time test 4 h
  Efficacy in rats (number seizure protected /number tested): 0/4
[6]; low dose i.p. (LEV 14 mg/kg), time test 8 h
  Efficacy in rats (number seizure protected /number tested): 0/4
[6]; high dose LEV 800 mg/kg i.p.
  Seizure protection (in words): failed to protect
[6]; low dose LEV 14 mg/kg i.p.
  Seizure protection (in words): failed to protect
[7]
  Plasma Dose Prop (AUC): 1.27
  Plasma Dose Prop (Cmax): 1.00
[7]; ip
  Plasma t1/2: 123 min
[8]
  Brain Dose Prop (AUC): 1.03
[9]
  Plasma Dose Prop (AUC): 0.55
  Plasma Dose Prop (Cmax): 0.500
[9]; ip
  Plasma t1/2: 191 min
[10]
  Brain Dose Prop (AUC): 0.56
[10]; ip
  Brain t1/2: 212 min
In vivo [11]
  Tmax: 15 min
  half-life: 103 min
In vivo [12]; Plasma t1/2
  half-life: 370 min
In vivo [13]
  half-life: 265 min
mice; rotarod test, i.p.
  TD50 - high dose: 500 mg/kg
rats
  TD50 - high dose: 800 mg/kg

## O=C1CC(=O)N(c2ccccc2)c2cc(Cl)ccc2N1 [NCLB, N-desmethyl clobazam]
[1]; [18]
  Brain/Plasma AUC ratio of active metabolite: 1.64
[1]; [19]
  Brain/Plasma AUC ratio of active metabolite: 1.88
[3]; mice, after CLB i.p., fold greater than CLB
  NCLB concentrations relative to CLB: approximately 10 fold
[3]; mouse, after CLB i.p., fold greater than CLB
  Plasma AUC of NCLB relative to CLB: approximately 10 fold
[3]; [20]
  Plasma t1/2 of metabolite: 266 min
[3]; [21]
  Plasma t1/2 of metabolite: 385 min
[4]; plasma and brain, after CLB i.p., fold less than CLB
  NCLB concentrations relative to CLB: ~ 20 fold

## CCCC(CCC)C(=O)O [VPA, sodium valproate]
Adult male CF-1 mice [5]; [22]
  Efficacy in mice (number seizure protected/number tested): 4/4
Adult male CF-1 mice [5]; [23]
  Efficacy in mice (number seizure protected/number tested): 4/4
Adult male CF-1 mice [5]; [24]
  Efficacy in mice (number seizure protected/number tested): 4/4
Adult male CF-1 mice [5]; [25]
  Efficacy in mice (number seizure protected/number tested): 4/4
Adult male CF-1 mice [5]; [26]
  Efficacy in mice (number seizure protected/number tested): 0/4
Adult male CF-1 mice [5]; [27]
  Efficacy in mice (number seizure protected/number tested): 0/4
Adult male CF-1 mice [5]; [28]
  Efficacy in mice (number seizure protected/number tested): 4/4
Adult male CF-1 mice [5]; [29]
  Efficacy in mice (number seizure protected/number tested): 3/4
Adult male CF-1 mice [5]; [30]
  Efficacy in mice (number seizure protected/number tested): 0/4
Adult male CF-1 mice [5]; [31]
  Efficacy in mice (number seizure protected/number tested): 0/4
Adult male CF-1 mice [5]; [32]
  Efficacy in mice (number seizure protected/number tested): 0/4
Adult male CF-1 mice [5]; [33]
  Efficacy in mice (number seizure protected/number tested): 0/4
Adult male CF-1 mice [5]; mice, comparison of the two VPA dose levels
  Brain concentration needed for complete seizure protection: above 100 ng/mg
Adult male CF-1 mice [5]; mice, high dose i.p. (VPA 570 mg/kg), sustained only within 2 hrs
  Seizure protection (in words): maximal antiseizure efficacy
Adult male CF-1 mice [5]; [34]
  Seizure protection (in words): seizure protection was observed within the first hour
[14]; time test 0.25 h
  Efficacy in rats (number seizure protected /number tested): 3/4
[14]; time test 0.5 h
  Efficacy in rats (number seizure protected /number tested): 3/4
[14]; time test 1 h
  Efficacy in rats (number seizure protected /number tested): 1/4
[14]; time test 2 h
  Efficacy in rats (number seizure protected /number tested): 0/4
[14]; time test 4 h
  Efficacy in rats (number seizure protected /number tested): 0/4
[14]; time test 8 h
  Efficacy in rats (number seizure protected /number tested): 0/4
[14]; high dose i.p. (CLB 37, VPA 315 mg/kg)
  Seizure protection (in words): full to moderate seizure protection
[14]; low dose i.p. (CLB 17, VPA 165 mg/kg)
  Seizure protection (in words): moderate protection
[7]
  Plasma Dose Prop (Cmax): 0.863
[8]
  Brain Dose Prop (AUC): 2.17
[8]; ip
  Brain t1/2: 76.8 min
[9]
  Plasma Dose Prop (Cmax): 0.902
[9]; ip
  Time to total drug elimination (>97% drug eliminated): less than 4.5 hrs
[10]
  Brain Dose Prop (AUC): 1.84
Adult male CF-1 mice [15]
  ED50 - low dose: 260 mg/kg
[16]
  ED50 - low dose: 165 mg/kg
In vivo [11]
  Tmax: 30 min
  half-life: 43.8 min
In vivo [11]; Plasma Tmax
  Tmax: 15 min
In vivo [17]
  Tmax: 30 min
In vivo [17]; Brain Tmax
  Tmax: 15 min
In vivo [17]; Brain t1/2
  half-life: 55.6 min
In vivo [12]; Plasma Tmax
  Tmax: 15 min
mice; in vivo, ip
  TD50 - high dose: 570 mg/kg
